Source: publication PMC9414862, “In Vitro and In Silico Potential Inhibitory Effects of New Biflavonoids from Ochna rhizomatosa on HIV-1 Integrase and Plasmodium falciparum” (Pharmaceutics, 2022)
Like-named read-outs stand apart in the source and are kept apart here. Blank lines part the entries; values can stand above or below the compound they belong to.

Experiments:
[1] = biological target: T1, HIV-1 integrase (purified recombinant HIV-1 subtype C IN) (Human immunodeficiency virus type 1 group M subtype C, UniProt Q75002); assay: HIV-1 Integrase strand transfer inhibition assay; type: biochemical
T1 construct: Recombinant HIV-1 subtype CIN was assembled on to the pre-processed donor DNA
Method: The HIV-1 Integrase strand transfer inhibition assay was adapted from previously described methods. […] Following incubation at room temperature for 40 min and a stringent wash step, 5 µg/mL purified recombinant HIV-1 subtype CIN in integrase buffer 1 ([…] to ethanol, 50 µg/mL BSA, pH 7.5) was added to individual wells. […] Recombinant HIV-1 subtype CIN was assembled on to the pre-processed donor DNA through incubation for 45 min at room temperature. Strand transfer reaction was initiated through the addition of 10 µM (final concentration) double-stranded FITC-labelled target DNA (5′-[…]/36-FAM/-3′) annealed to (5′-[…]-/36-FAM/-3′) in integrase buffer 2 (same as buffer 1, except 25 µM MnCl2 was replaced with 2.5 µM MgCl2). After an incubation period of 60 min at 37 °C, the plates were washed using PBS containing 0.05% Tween 20 and 0.01% BSA, followed by the addition of peroxidase-conjugated sheep anti-FITC antibody (Thermo Scientific, Waltham, MA, USA) diluted 1:1000 in the same PBS buffer. Finally, the plates were washed and peroxidase substrate (Sure Blue Reserve™, KPL, Gaithersburg, MD, USA) was added to allow for detection at 620 nm using a Synergy MX (BioTek®) plate reader. Absorbance values were converted to % enzyme activity relative to the readings obtained from the control wells (enzyme without inhibitor).

[2] = tested on: Plasmodium falciparum strain NF54 (chloroquine-sensitive), erythrocytic stages; assay: Antiplasmodial 3H-hypoxanthine incorporation assay; type: cell-based; details: for IC50: Plasmodium falciparum
Method: The assessment of antiplasmodial activity in vitro was evaluated against the erythrocytic stages of chloroquine-sensitive Plasmodium falciparum strain NF54 using a ^3H-hypoxanthine incorporation assay previously described, of which the […] NF54 strain originated from South Africa, and the standard drug chloroquine was obtained from Sigma-Aldrich (St. Louis, MO, USA). Compounds were dissolved in DMSO at 10 μg/mL and added to parasite cultures incubated in RPMI 1640 medium without hypoxanthine, supplemented with HEPES (5.94 g/L), NaHCO3 (2.1 g/L), neomycin (100 U/mL), Albumax, and washed human red cells A^+ at 2.5% hematocrit (0.3% parasitemia). Serial sample dilutions of […] dilution steps covering a range from 100 to 0.002 μg/mL were prepared. The 96-well plates were incubated in a humidified atmosphere at 37 °C; 4% CO2; 3% O2 and 93% N2. After 48 h, 50 μL of ^3H-hypoxanthine (0.5 μCi) was added to each well.

[3] = chloroquine-sensitive P. falciparum NF54, mean ± SD, '-' in Table 3 = no activity, read-out: NF54: IC50 (antiplasmodial activity)
[4] = chloroquine-sensitive P. falciparum NF54, mean ± SD, '-' in Table 3 = no activity
[5] = mean ± SD; '-' in Table 2 = no inhibition detected
[6] = mean ± SD; '-' in Table 2 = no inhibition detected; read-out: Assembly IC50 (anti-HIV-1 integrase activity)

T1 sequence (Q75002 1152-1439): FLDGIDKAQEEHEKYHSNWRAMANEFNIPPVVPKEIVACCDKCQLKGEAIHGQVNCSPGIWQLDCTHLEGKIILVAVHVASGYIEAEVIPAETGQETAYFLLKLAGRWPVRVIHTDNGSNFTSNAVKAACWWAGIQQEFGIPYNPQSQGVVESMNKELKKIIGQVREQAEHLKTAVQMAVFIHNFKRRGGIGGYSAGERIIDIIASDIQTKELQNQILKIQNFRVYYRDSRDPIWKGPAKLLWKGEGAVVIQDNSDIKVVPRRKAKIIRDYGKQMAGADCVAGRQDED

SMILES: O=C(c1ccc(O)cc1O)[C@@H](c1coc2cc(O)ccc2c1=O)C(c1ccc(O)cc1)c1ccc(O)cc1 [Compound 1]
IC50 ([1]; read-out: Assembly IC50 (anti-HIV-1 integrase activity)): 0.047 ± 0.021 µM | IC50 [2, 3]: > 190 µM | NF54: IC50 (antiplasmodial activity) [2, 4]: no activity

SMILES: COc1ccc(C(c2ccc(O)cc2)[C@@H](C(=O)c2ccc(O)cc2O)c2coc3cc(O)ccc3c2=O)cc1 (some centres unmarked) [Compound 4, schweinfurthianone A]
Assembly IC50 (anti-HIV-1 integrase activity) [1, 5]: no inhibition detected | IC50 [1, 6]: > 20 µM | IC50 [2, 3]: 8.2 ± 0.93 µM

SMILES: COc1ccc(C(c2ccc(OC)cc2)[C@@H](C(=O)c2ccc(OC)cc2O)c2coc3cc(OC)ccc3c2=O)cc1 [Compound 2, (R)-3-(1-(2′-hydroxy-4′-methoxyphenyl)-3,3-bis(4″,4‴-dimethoxyphenyl)-1-oxopropan-2-yl)-4-methoxychromenone]
IC50 [1, 6]: > 20 µM | IC50 [2, 3]: 4.6 ± 6.09 µM

IC50 ([2]; NF54, read-out: NF54: IC50 (antiplasmodial activity)): 0.006 ± 0.002 µM
SMILES: CCN(CC)CCCC(C)Nc1ccnc2cc(Cl)ccc12 (centres unmarked) [Chloroquine, reference compound]

SMILES: COc1cc(-c2coc3cc(O)cc(OC)c3c2=O)ccc1O [Compound 7, 4′,7-dihydroxy-3′,5-dimethoxyisoflavone]
IC50 [1, 6]: > 20 µM | IC50 [2, 3]: > 190 µM | NF54: IC50 (antiplasmodial activity) [2, 4]: no activity

SMILES: O=C(/C=C/c1ccc(O)cc1)c1c(O)cc(O)c2c(C(=O)c3ccc(O)cc3O)c(-c3ccc(O)cc3)oc12 [Compound 6, calodenine B]
Assembly IC50 (anti-HIV-1 integrase activity) [1, 5]: no inhibition detected | IC50 [1, 6]: > 20 µM | IC50 [2, 3]: > 190 µM | NF54: IC50 (antiplasmodial activity) [2, 4]: no activity

IC50 [2, 3]: 0.002 µM
SMILES: C[C@H]1[C@H](OC(=O)CCC(=O)O)O[C@@H]2O[C@@]3(C)CC[C@H]4[C@H](C)CC[C@@H]1[C@@]24OO3 [Artesumate, reference compound]

SMILES: COc1ccc(C(c2ccc(O)cc2)[C@@H](C(=O)c2ccc(OC)cc2O)c2coc3cc(OC)ccc3c2=O)cc1 (some centres unmarked) [Compound 5, shweinfurthianone B]
Assembly IC50 (anti-HIV-1 integrase activity) [1, 5]: no inhibition detected | IC50 [1, 6]: > 20 µM | IC50 [2, 3]: 5.11 ± 13.7 µM

SMILES: COc1ccc(C(c2ccc(O)cc2)[C@@H](C(=O)c2ccc(O)cc2O)c2coc3cc(OC)ccc3c2=O)cc1 (stereo partly drawn) [Compound 3, (R)-3-(1-(2′,4′-dihydroxyphenyl)-3,3-bis(4″-hydroxy-4‴-methoxyphenyl)-1-oxopropan-2-yl)-4 methoxychromenone]
Assembly IC50 (anti-HIV-1 integrase activity) [1, 5]: no inhibition detected | IC50 ([1]; read-out: Assembly IC50 (anti-HIV-1 integrase activity); mean ± SD; '-' in Table 2 = no inhibition detected): > 20 µM | IC50 [2, 3]: 7.86 ± 5.12 µM
